The values that follow are results of earlier work, collected in PubChem BioAssay AID1259409 (Chemical Carcinogenesis Research Information System (CCRIS), 2018).

Where “and” joins values, the source holds several entries; their conditions need not be identical. Equal entries are not always repeated.

The test system of the data set is rodent chemically induced tumor inhibition, incidence and multiplicity. The data set can be described thus: CCRIS tumor inhibitor studies.

As to `Cc1ccc(-c2cc(C(F)(F)F)nn2-c2ccc(S(N)(=O)=O)cc2)cc1`, the “tumour outcome (control, treated, inhibition, significance)” value by setting is: (Carcinogen: N-BUTYL-N-N(4-4-HYDROXYBUTYL)-NITROSAMINE [3817-11-6], Dose [Inhibitor]: 200 MG/KG IN DIET FOR 36 WK BEGINNING 1 WK PRIOR TO FIRST CARCINOGEN DOSE (STUDY DURATION: 36 WK), Route [Inhibitor]: ORAL, Species: MOUSE, Strain/Sex: B6D2F1/MALE, Target Tissue: Type of Lesion: URINARY BLADDER: TUMOR, Dose [Carcinogen]: 7.5 MG IN 0.1 ML 20% ETHANOL 1X/WK FOR 12 WK (STUDY DURATION: 36 WK), Promoter: NONE) 51%, 29%, 43%, significance level not shown; (Carcinogen: N-BUTYL-N-N(4-4-HYDROXYBUTYL)-NITROSAMINE [3817-11-6], Dose [Inhibitor]: 500 MG/KG IN DIET FOR 27 WK BEGINNING 1 WK POST LAST CARCINOGEN DOSE (STUDY DURATION: 8 MONTHS), Route [Inhibitor]: ORAL, Species: RAT, Strain/Sex: F344/FEMALE, Target Tissue: Type of Lesion: URINARY BLADDER: TUMOR, Dose [Carcinogen]: 150 MG IN 0.5 ML 20% ETHANOL 2X/WK FOR 8 WK (STUDY DURATION: 8 MONTHS), Promoter: NONE) 57%, 4%, 93%, significance level not shown; (Carcinogen: N-BUTYL-N-N(4-4-HYDROXYBUTYL)-NITROSAMINE [3817-11-6], Dose [Inhibitor]: 500 MG/KG IN DIET FOR 36 WK BEGINNING 1 WK PRIOR TO FIRST CARCINOGEN DOSE (STUDY DURATION: 36 WK), Route [Inhibitor]: ORAL, Species: MOUSE, Strain/Sex: B6D2F1/MALE, Target Tissue: Type of Lesion: URINARY BLADDER: TUMOR, Dose [Carcinogen]: 7.5 MG IN 0.1 ML 20% ETHANOL 1X/WK FOR 12 WK (STUDY DURATION: 36 WK), Promoter: NONE) 51%, 24%, 53%, significance level not shown; (Carcinogen: N-BUTYL-N-N(4-4-HYDROXYBUTYL)-NITROSAMINE [3817-11-6], Dose [Inhibitor]: 500 MG/KG IN DIET FOR 36 WK BEGINNING 1 WK PRIOR TO FIRST CARCINOGEN DOSE (STUDY DURATION: 36 WK), Route [Inhibitor]: ORAL, Species: RAT, Strain/Sex: F344/FEMALE, Target Tissue: Type of Lesion: URINARY BLADDER: TUMOR, Dose [Carcinogen]: 150 MG IN 0.5 ML 20% ETHANOL 2X/WK FOR 8 WK (STUDY DURATION: 36 WK), Promoter: NONE) 17/30 (57%), 4/28 (14%), 75%, significance level not shown; (Carcinogen: N-BUTYL-N-N(4-4-HYDROXYBUTYL)-NITROSAMINE [3817-11-6], Dose [Inhibitor]: 1000 MG/KG IN DIET FOR 27 WK BEGINNING 1 WK POST LAST CARCINOGEN DOSE (STUDY DURATION: 8 MONTHS), Route [Inhibitor]: ORAL, Species: RAT, Strain/Sex: F344/FEMALE, Target Tissue: Type of Lesion: URINARY BLADDER: TUMOR, Dose [Carcinogen]: 150 MG IN 0.5 ML 20% ETHANOL 2X/WK FOR 8 WK (STUDY DURATION: 8 MONTHS), Promoter: NONE) 57%, 0%, 100%, significance level not shown; (Carcinogen: N-BUTYL-N-N(4-4-HYDROXYBUTYL)-NITROSAMINE [3817-11-6], Dose [Inhibitor]: 1000 MG/KG IN DIET FOR 36 WK BEGINNING 1 WK PRIOR TO FIRST CARCINOGEN DOSE (STUDY DURATION: 36 WK), Route [Inhibitor]: ORAL, Species: RAT, Strain/Sex: F344/FEMALE, Target Tissue: Type of Lesion: URINARY BLADDER: TUMOR, Dose [Carcinogen]: 150 MG IN 0.5 ML 20% ETHANOL 2X/WK FOR 8 WK (STUDY DURATION: 36 WK), Promoter: NONE) 17/30 (57%), 6/29 (21%), 63%, significance level not shown. Also, the “tumour outcome (control, treated, inhibition, significance)” value (Carcinogen: N-BUTYL-N-N(4-4-HYDROXYBUTYL)-NITROSAMINE [3817-11-6], Dose [Inhibitor]: 1250 MG/KG IN DIET FOR 36 WK BEGINNING 1 WK PRIOR TO FIRST CARCINOGEN DOSE (STUDY DURATION: 36 WK), Route [Inhibitor]: ORAL, Species: MOUSE, Strain/Sex: B6D2F1/MALE, Target Tissue: Type of Lesion: URINARY BLADDER: TUMOR, Dose [Carcinogen]: 7.5 MG IN 0.1 ML 20% ETHANOL 1X/WK FOR 12 WK (STUDY DURATION: 36 WK), Promoter: NONE) was 51%, 12%, 76%, significance level not shown. The outcome (Carcinogen: N-nitrosodiethylamine (55-18-5), Dose [Inhibitor]: 1500 mg/kg in diet for 38 wk, study duration 38 wk, Route [Inhibitor]: Oral, Species: Rat, Strain/Sex: Wistar/Male, Target Tissue: Type of Lesion: Liver: Neoplasia, Dose [Carcinogen]: 100 mg/l in drinking water for 4 mo, Promoter: None) is recorded as 91.7, 65.2, p<0.05.
Take `CC(/C=C/C=C(\C)C(=O)O)=C\C=C\C=C(C)\C=C\C=C(/C)C(=O)O`: the “tumour outcome (control, treated, inhibition, significance)” value is, setting by setting: (Carcinogen: BENZO[A]PYRENE, 50-32-8, Dose [Inhibitor]: 0, 0.2 UMOL IN 0.2 ML ACETONE 2/WK FOR 20 WK ADMINISTERED CONCURRENTLY WITH PROMOTER (STUDY DURATION: 21 WK), Route [Inhibitor]: DERMAL, Species: MOUSE, Strain/Sex: CD-1/FEMALE, Target Tissue: Type of Lesion: SKIN: PAPILLOMA, Dose [Carcinogen]: 20 NMOL IN 0.2 ML ACETONE 1/WK FOR 10 WK, Promoter: 12-O-TETRADECANOYLPHORBOL-13-ACETATE, 16561-29-8) 100%, 53%, 47%, not calculated; (Carcinogen: BENZO[A]PYRENE, 50-32-8, Dose [Inhibitor]: 0, 1 UMOL IN 0.2 ML ACETONE 2/WK FOR 20 WK ADMINISTERED CONCURRENTLY WITH PROMOTER (STUDY DURATION: 21 WK), Route [Inhibitor]: DERMAL, Species: MOUSE, Strain/Sex: CD-1/FEMALE, Target Tissue: Type of Lesion: SKIN: PAPILLOMA, Dose [Carcinogen]: 20 NMOL IN 0.2 ML ACETONE 1/WK FOR 10 WK, Promoter: 12-O-TETRADECANOYLPHORBOL-13-ACETATE, 16561-29-8) 100%, 28%, 72%, not calculated.
Turning to `COc1c2ccoc2cc2cc(C)oc(=O)c12`, the “tumour outcome (control, treated, inhibition, significance)” value by setting is: (Carcinogen: 7,12-DIMETHYLBENZ[A]ANTHRACENE, 57-97-6, Dose [Inhibitor]: 0, 400 NMOL ONCE APPLIED 5 MIN PRIOR TO CARCINOGEN DOSE (STUDY DURATION: 25 WK), Route [Inhibitor]: DERMAL, Species: MOUSE, Strain/Sex: SENCAR, Target Tissue: Type of Lesion: SKIN: PAPILLOMA, Dose [Carcinogen]: 10 NMOL ONCE, Promoter: 12-O-TETRADECANOYLPHORBOL-13-ACETATE, 16561-29-8) 96%, 96%, 0%, not significant; (Carcinogen: BENZO[A]PYRENE, 50-32-8, Dose [Inhibitor]: 0, 400 NMOL ONCE APPLIED 5 MIN PRIOR TO CARCINOGEN DOSE (STUDY DURATION: 25 WK), Route [Inhibitor]: DERMAL, Species: MOUSE, Strain/Sex: SENCAR, Target Tissue: Type of Lesion: SKIN: PAPILLOMA, Dose [Carcinogen]: 200 NMOL ONCE, Promoter: 12-O-TETRADECANOYLPHORBOL-13-ACETATE, 16561-29-8) 91%, 91%, 0%, not significant.
As to `COc1ccc(O)c(C(C)(C)C)c1`, the “tumour outcome (control, treated, inhibition, significance)” value is, setting by setting: (Carcinogen: BENZO[A]PYENE, 50-32-8, Dose [Inhibitor]: 0.28 MMOL/G DIET DAILY FOR 6 WK STARTING 14 D PRIOR TO THE FIRST UNTIL 1 D AFTER LAST CARCINOGEN DOSE FOLLOWED BY AN OBS, Route [Inhibitor]: ORAL, Species: MOUSE, Strain/Sex: STRAIN-A/FEMALE, Target Tissue: Type of Lesion: LUNG: ADENOMA, Dose [Carcinogen]: 3 MG IN 0.2 ML COTTONSEED OIL GIVEN 3X AT 2 WK INTERVALS, Promoter: NONE USED) 100%, 100%, 0%, not significant; (Carcinogen: BENZO[A]PYRENE, 50-32-8, Dose [Inhibitor]: 0.03 MMOL/G OF DIET DAILY STARTING 7 D BEFORE AND CONTINUING THROUGH 3 D AFTER CARCINOGEN TREATMENT FOLLOWED BY OBSERVAT, Route [Inhibitor]: ORAL, Species: MOUSE, Strain/Sex: ICR/FEMALE, Target Tissue: Type of Lesion: FORESTOMACH: NEOPLASM, Dose [Carcinogen]: 1 MG IN 0.2 ML CORN OIL 2/WK FOR 4 WK, Promoter: NONE USED) 90%, 79%, 12%, not significant and 94%, 79%, 16%, not significant.
Consider `c1ccc(Cn2ccnc2)cc1`, for which the “tumour outcome (control, treated, inhibition, significance)” value by setting is: (Carcinogen: 7,12-DIMETHYLBENZ[A]ANTHRACENE, 57-97-6, Dose [Inhibitor]: 100 UG IN 0.2 ML ACETONE ONCE 5 MIN BEFORE CARCINOGEN TREATMENT (STUDY DURATION: 31 WK), Route [Inhibitor]: DERMAL, Species: MOUSE, Strain/Sex: CD-1/FEMALE, Target Tissue: Type of Lesion: SKIN: PAPILLOMA, Dose [Carcinogen]: 10 NMOL IN 0.2 ML ACETONE ONCE, Promoter: 12-O-TETRADECANOYLPHORBOL-13-ACETATE, 16561-29-8) 87%, 80%, 8%, not calculated; (Carcinogen: BENZO[A]PYRENE, 50-32-8, Dose [Inhibitor]: 100 UG IN 0.2 ML ACETONE ONCE 5 MINUTES BEFORE CARCINOGEN TREATMENT (STUDY DURATION: 31 WK), Route [Inhibitor]: DERMAL, Species: MOUSE, Strain/Sex: CD-1/FEMALE, Target Tissue: Type of Lesion: SKIN: PAPILLOMA, Dose [Carcinogen]: 400 NMOL IN 0.2 ML ACETONE ONCE, Promoter: 12-O-TETRADECANOYLPHORBOL-13-ACETATE, 16561-29-8) 90%, 78%, 13%, not calculated.
Regarding `CCCCC/C=C/CC/C=C/CCCCCCC(=O)O`, the “tumour outcome (control, treated, inhibition, significance)” value (Carcinogen: BENZO[A]PYRENE, 50-32-8, Dose [Inhibitor]: 0, 0.1 ML IN 0.1 ML OLIVE OIL 4 AND 2 D PRIOR TO CARCINOGEN DOSE (CYCLE REPEATED 4 X) (STUDY DURATION: 23 WK), Route [Inhibitor]: GAVAGE, Species: MOUSE, Strain/Sex: ICR/FEMALE, Target Tissue: Type of Lesion: STOMACH: PAPILLOMA, Dose [Carcinogen]: 2 MG IN 0.2 ML OLIVE OIL 1/WK FOR 4 WK) is 91%, 71%, 22%, p<0.05 and 96%, 96%, 0% and 100%, 71%, 29%, p<0.05.
